Measured values from ChEMBL document CHEMBL5649169 (ChemMedChem, 2018).

What was measured:
[1] = target: Ephrin type-B receptor 2 (Homo sapiens) (UniProt P29323); note: assay method not described here
Vinculin (Homo sapiens) = Vinculin (Homo sapiens) (UniProt P18206)
[2] = target: 26S proteasome regulatory subunit 6A (Homo sapiens) (UniProt P17980); note: assay method not described here
[3] = target: Heterogeneous nuclear ribonucleoprotein Q (Homo sapiens) (UniProt O60506); note: assay method not described here
[4] = target: Fatty acid CoA ligase Acsl3 (Homo sapiens) (UniProt O95573); note: assay method not described here
[5] = target: L-lactate dehydrogenase B chain (Homo sapiens) (UniProt P07195); note: assay method not described here
[6] = target: ELAV-like protein 1 (Homo sapiens) (UniProt Q15717); note: assay method not described here
[7] = target: Hepatocyte growth factor receptor (Homo sapiens) (UniProt P08581); note: assay method not described here
Ephrin type-A receptor 7 = Ephrin type-A receptor 7 (Homo sapiens, UniProt Q15375); assay: Inhibition of Nano Luc-fused full length C-terminal EPHA7 (unknown origin) expressed in HEK293T cells using NanoGlo as substrate incubated for 2 hrs in presence of tracer by NanoBRET assay; type: cell-based
[8] = target: 26S proteasome non-ATPase regulatory subunit 8 (Homo sapiens) (UniProt P48556); note: assay method not described here
[9] = target: Rab GDP dissociation inhibitor beta (Homo sapiens) (UniProt P50395); note: assay method not described here
[10] = target: UBX domain-containing protein 1 (Homo sapiens) (UniProt Q04323); note: assay method not described here
[11] = target: Band 4.1-like protein 2 (Homo sapiens) (UniProt O43491); note: assay method not described here
[12] = target: Serine/threonine-protein kinase Nek9 (Homo sapiens) (UniProt Q8TD19); note: assay method not described here
[13] = target: Dolichyl-diphosphooligosaccharide--protein glycosyltransferase subunit 1 (Homo sapiens) (UniProt P04843); note: assay method not described here
[14] = target: Translation initiation factor eIF2B subunit gamma (Homo sapiens) (UniProt Q9NR50); note: assay method not described here
[15] = target: Histone H4 (Homo sapiens) (UniProt P62805); note: assay method not described here
[16] = target: SWI/SNF complex subunit SMARCC2 (Homo sapiens) (UniProt Q8TAQ2); note: assay method not described here
[17] = target: Microtubule-associated protein 1B (Homo sapiens) (UniProt P46821); note: assay method not described here
[18] = target: Eukaryotic translation initiation factor 5B (Homo sapiens) (UniProt O60841); note: assay method not described here
[19] = target: AP-2 complex subunit sigma (Homo sapiens) (UniProt P53680); note: assay method not described here
[20] = target: T-complex protein 1 subunit gamma (Homo sapiens) (UniProt P49368); note: assay method not described here
[21] = target: Ran-specific GTPase-activating protein (Homo sapiens) (UniProt P43487); note: assay method not described here
[22] = target: Transketolase (Homo sapiens) (UniProt P29401); note: assay method not described here
[23] = target: GSK3B-interacting protein (Homo sapiens) (UniProt Q9P0R6); note: assay method not described here
[24] = target: Aminoacyl tRNA synthase complex-interacting multifunctional protein 2 (Homo sapiens) (UniProt Q13155); note: assay method not described here
[25] = target: Ribonuclease H1 (Homo sapiens) (UniProt O60930); note: assay method not described here
[26] = target: Prohibitin 1 (Homo sapiens) (UniProt P35232); note: assay method not described here
[27] = target: Ribosomal protein S6 kinase alpha-1 (Homo sapiens) (UniProt Q15418); note: assay method not described here
[28] = target: Protein RER1 (Homo sapiens) (UniProt O15258); note: assay method not described here
[29] = target: Serine/threonine-protein kinase N1 (Homo sapiens) (UniProt Q16512); note: assay method not described here
[30] = target: Fatty acid synthase (Homo sapiens) (UniProt P49327); note: assay method not described here
Metaxin-2 (Homo sapiens) = Metaxin-2 (Homo sapiens) (UniProt O75431)
[31] = target: WD repeat-containing protein 5 (Homo sapiens) (UniProt P61964); note: assay method not described here
[32] = target: Probable ATP-dependent RNA helicase DDX5 (Homo sapiens) (UniProt P17844); note: assay method not described here
[33] = target: Polypyrimidine tract-binding protein 1 (Homo sapiens) (UniProt P26599); note: assay method not described here
[34] = target: General transcription and DNA repair factor IIH helicase subunit XPD (Homo sapiens) (UniProt P18074); note: assay method not described here
[35] = target: Cyclin-dependent kinase 5 (Homo sapiens) (UniProt Q00535); note: assay method not described here
[36] = target: Coatomer subunit beta' (Homo sapiens) (UniProt P35606); note: assay method not described here
[37] = target: Stalled ribosome sensor GCN1 (Homo sapiens) (UniProt Q92616); note: assay method not described here
[38] = target: Large ribosomal subunit protein uL24 (Homo sapiens) (UniProt P61254); note: assay method not described here
[39] = target: Ras-related protein Rab-8A (Homo sapiens) (UniProt P61006); note: assay method not described here
[40] = target: AP-1 complex subunit gamma-1 (Homo sapiens) (UniProt O43747); note: assay method not described here
[41] = target: Tyrosine-protein kinase FRK (Homo sapiens) (UniProt P42685); note: assay method not described here
[42] = target: Annexin A7 (Homo sapiens) (UniProt P20073); note: assay method not described here
Throughout, for ED50: assay method not described here.

Chain of Aminoacyl tRNA synthase complex-interacting multifunctional protein 2 (Homo sapiens) (Q13155 whole entry, one chain of several): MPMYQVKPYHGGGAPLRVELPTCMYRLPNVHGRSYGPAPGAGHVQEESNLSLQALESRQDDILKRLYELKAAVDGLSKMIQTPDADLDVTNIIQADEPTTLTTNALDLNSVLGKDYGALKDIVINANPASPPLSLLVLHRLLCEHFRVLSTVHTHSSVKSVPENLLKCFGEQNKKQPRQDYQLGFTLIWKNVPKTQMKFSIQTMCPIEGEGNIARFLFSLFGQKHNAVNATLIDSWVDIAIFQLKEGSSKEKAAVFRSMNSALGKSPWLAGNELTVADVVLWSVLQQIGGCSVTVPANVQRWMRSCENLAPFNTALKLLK
Chain of Rab GDP dissociation inhibitor beta (Homo sapiens) (P50395 whole entry, the tested form may be a part): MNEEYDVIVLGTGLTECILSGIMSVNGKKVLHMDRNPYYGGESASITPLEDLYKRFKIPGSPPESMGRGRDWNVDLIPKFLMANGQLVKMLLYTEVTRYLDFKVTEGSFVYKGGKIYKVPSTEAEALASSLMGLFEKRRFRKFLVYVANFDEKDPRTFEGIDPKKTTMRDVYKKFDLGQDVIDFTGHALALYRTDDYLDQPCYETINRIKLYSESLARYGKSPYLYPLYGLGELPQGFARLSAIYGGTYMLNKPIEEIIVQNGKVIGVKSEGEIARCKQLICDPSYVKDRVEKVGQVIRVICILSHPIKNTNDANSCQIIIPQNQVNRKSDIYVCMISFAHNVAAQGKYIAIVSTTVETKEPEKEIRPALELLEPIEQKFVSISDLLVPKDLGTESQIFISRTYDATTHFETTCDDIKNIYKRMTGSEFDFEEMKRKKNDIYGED
Chain of Heterogeneous nuclear ribonucleoprotein Q (Homo sapiens) (O60506 whole entry): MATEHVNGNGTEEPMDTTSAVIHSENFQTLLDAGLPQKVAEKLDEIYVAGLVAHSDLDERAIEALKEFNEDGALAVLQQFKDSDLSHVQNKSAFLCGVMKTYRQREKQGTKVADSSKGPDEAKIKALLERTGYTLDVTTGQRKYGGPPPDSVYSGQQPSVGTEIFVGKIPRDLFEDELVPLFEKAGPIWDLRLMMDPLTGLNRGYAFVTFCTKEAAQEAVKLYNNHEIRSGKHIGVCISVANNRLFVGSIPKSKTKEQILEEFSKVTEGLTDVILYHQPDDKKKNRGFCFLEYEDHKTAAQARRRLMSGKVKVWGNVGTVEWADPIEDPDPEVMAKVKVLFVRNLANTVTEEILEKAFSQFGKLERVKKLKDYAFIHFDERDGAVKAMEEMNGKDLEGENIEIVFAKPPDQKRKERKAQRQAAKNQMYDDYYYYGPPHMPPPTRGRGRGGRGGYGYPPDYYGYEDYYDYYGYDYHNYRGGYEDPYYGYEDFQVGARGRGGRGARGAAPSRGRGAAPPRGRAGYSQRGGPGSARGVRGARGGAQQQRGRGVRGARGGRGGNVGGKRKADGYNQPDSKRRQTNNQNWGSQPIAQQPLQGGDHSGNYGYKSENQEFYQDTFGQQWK
Chain of Ephrin type-A receptor 7 (Q15375 whole entry, the tested form may be a part): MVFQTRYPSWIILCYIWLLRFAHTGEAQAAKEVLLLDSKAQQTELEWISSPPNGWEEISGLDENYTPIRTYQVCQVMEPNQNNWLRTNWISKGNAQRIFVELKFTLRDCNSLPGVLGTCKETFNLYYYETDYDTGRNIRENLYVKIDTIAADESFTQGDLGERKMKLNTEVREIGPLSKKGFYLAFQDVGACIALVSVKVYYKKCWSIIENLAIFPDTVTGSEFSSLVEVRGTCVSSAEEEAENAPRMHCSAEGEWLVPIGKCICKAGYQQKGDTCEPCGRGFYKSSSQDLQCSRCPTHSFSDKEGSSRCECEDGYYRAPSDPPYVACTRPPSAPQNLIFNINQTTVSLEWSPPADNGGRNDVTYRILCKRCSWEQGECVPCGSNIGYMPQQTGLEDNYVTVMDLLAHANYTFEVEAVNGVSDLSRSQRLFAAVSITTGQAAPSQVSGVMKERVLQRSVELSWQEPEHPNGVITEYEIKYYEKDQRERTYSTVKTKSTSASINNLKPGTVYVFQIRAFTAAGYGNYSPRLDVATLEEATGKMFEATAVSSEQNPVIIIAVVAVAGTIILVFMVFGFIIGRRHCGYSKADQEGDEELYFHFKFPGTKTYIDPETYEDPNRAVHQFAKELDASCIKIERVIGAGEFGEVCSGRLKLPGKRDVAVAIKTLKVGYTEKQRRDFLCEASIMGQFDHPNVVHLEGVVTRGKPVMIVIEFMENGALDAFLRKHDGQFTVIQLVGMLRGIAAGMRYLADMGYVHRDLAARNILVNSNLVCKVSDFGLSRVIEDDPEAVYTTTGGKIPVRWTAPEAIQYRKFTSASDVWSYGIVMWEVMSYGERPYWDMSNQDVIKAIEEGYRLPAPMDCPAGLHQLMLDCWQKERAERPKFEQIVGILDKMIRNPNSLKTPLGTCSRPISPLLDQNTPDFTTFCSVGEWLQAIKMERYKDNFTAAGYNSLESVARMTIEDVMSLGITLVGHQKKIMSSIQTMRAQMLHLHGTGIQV
Chain of UBX domain-containing protein 1 (Homo sapiens) (Q04323 whole entry, the tested form may be a part): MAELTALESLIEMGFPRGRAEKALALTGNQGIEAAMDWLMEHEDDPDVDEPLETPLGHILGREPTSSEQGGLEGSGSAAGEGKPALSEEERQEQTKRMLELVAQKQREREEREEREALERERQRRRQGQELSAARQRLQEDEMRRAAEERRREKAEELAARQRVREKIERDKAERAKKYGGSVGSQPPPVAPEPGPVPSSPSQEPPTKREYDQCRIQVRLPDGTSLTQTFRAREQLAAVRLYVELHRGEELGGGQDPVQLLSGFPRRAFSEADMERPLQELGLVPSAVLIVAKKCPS
Chain of Ras-related protein Rab-8A (Homo sapiens) (P61006 whole entry): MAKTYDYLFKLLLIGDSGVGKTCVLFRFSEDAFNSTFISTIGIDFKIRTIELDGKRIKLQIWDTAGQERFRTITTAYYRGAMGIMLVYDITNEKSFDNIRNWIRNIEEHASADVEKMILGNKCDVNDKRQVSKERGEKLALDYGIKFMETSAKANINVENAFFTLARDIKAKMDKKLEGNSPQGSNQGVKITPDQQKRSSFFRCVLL
Chain of Ephrin type-B receptor 2 (Homo sapiens) (P29323 whole entry): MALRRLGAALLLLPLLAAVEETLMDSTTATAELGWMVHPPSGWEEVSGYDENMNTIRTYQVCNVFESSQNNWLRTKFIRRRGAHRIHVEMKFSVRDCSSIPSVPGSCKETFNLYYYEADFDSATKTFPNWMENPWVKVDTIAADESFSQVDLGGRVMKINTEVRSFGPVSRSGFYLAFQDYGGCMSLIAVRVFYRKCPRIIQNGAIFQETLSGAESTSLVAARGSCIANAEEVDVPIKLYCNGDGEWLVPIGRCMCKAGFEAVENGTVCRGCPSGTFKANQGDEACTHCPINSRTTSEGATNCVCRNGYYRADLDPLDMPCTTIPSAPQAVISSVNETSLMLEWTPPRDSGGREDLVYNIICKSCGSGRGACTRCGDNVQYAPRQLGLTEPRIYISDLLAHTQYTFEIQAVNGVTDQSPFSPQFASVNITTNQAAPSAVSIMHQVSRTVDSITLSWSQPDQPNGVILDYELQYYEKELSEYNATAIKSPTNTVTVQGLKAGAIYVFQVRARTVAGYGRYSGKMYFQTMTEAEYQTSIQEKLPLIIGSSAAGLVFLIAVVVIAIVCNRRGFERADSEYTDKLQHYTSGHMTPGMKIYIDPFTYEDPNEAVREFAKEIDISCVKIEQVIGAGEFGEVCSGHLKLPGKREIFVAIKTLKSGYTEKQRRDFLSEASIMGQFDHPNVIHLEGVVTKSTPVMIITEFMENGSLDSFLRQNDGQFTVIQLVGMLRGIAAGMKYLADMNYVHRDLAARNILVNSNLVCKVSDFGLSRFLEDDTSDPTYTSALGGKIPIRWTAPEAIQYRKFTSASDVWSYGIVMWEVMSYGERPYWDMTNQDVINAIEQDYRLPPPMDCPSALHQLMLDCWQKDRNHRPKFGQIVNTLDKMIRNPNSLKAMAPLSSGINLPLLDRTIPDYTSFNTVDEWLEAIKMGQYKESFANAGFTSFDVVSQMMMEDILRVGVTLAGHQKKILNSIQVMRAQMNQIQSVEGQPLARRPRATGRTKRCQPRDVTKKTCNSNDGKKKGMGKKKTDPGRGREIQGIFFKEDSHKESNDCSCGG
Chain of Prohibitin 1 (Homo sapiens) (P35232 whole entry): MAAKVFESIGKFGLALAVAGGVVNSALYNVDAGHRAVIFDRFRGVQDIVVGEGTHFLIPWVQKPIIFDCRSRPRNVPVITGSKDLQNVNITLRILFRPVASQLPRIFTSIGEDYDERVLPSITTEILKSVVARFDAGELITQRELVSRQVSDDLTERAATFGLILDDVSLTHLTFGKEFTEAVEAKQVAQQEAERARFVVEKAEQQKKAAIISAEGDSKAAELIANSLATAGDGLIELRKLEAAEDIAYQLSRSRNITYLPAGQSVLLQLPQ
Chain of ELAV-like protein 1 (Homo sapiens) (Q15717 whole entry): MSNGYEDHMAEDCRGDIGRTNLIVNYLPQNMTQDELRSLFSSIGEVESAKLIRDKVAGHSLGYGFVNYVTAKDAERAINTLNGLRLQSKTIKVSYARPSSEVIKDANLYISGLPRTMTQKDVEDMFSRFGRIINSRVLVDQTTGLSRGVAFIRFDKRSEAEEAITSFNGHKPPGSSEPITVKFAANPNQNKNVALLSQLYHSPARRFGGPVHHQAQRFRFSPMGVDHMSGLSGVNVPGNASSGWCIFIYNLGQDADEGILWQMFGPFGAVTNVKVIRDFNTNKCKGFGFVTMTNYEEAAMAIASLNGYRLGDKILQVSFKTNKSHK
Chain of Ribonuclease H1 (Homo sapiens) (O60930 whole entry): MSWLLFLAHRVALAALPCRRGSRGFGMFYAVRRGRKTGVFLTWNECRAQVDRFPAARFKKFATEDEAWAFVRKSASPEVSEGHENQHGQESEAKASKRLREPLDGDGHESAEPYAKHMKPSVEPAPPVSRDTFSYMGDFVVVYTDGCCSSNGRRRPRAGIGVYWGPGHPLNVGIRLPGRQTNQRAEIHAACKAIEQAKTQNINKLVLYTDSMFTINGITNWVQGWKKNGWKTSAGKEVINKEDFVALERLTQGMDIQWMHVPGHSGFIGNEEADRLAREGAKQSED
Chain of AP-2 complex subunit sigma (Homo sapiens) (P53680 whole entry, looked up, one chain of several): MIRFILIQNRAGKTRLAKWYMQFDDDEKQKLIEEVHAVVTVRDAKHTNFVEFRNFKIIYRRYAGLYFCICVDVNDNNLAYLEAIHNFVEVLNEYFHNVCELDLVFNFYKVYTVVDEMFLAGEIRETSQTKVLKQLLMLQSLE

## Cc1ccc(C(=O)Nc2cccc(C(F)(F)F)c2)cc1Nc1nc(-c2cccnc2)nc2c1cnn2C
[1]
  ED50: 2.94 µM
Vinculin (Homo sapiens)
  ED50: 0.359 µM
[2]
  ED50: 7.62 µM
[3]
  ED50: 0.0225 µM
[4]
  ED50: 5.73 µM
[5]
  ED50: 0.00831 µM
[6]
  ED50: 0.0107 µM
[7]
  ED50: 1.75 µM
Ephrin type-A receptor 7
  IC50: > 50 µM
[8]
  ED50: 8.9 µM
[9]
  ED50: 74.6 µM
[10]
  ED50: 30.7 µM
[11]
  ED50: 0.00541 µM
[12]
  ED50: 0.163 µM
[13]
  ED50: 0.13 µM
[14]
  ED50: 10.3 µM
[15]
  ED50: 4.09 µM
[16]
  ED50: 21.8 µM
[17]
  ED50: 0.0244 µM
[18]
  ED50: 41.8 µM
[19]
  ED50: 0.678 µM
[20]
  ED50: 0.0644 µM
[21]
  ED50: 3.63 µM
[22]
  ED50: 0.167 µM
[23]
  ED50: 0.0291 µM
[24]
  ED50: 0.00534 µM
[25]
  ED50: 12.7 µM
[26]
  ED50: 6.34 µM
[27]
  ED50: 7.62 µM
[28]
  ED50: 78.2 µM
[29]
  ED50: 0.626 µM
[30]
  ED50: 0.0377 µM
Metaxin-2 (Homo sapiens)
  ED50: 0.0101 µM
[31]
  ED50: 0.0527 µM
[32]
  ED50: 1.16 µM
[33]
  ED50: 3.12 µM
[34]
  ED50: 0.199 µM
[35]
  ED50: 5.06 µM
[36]
  ED50: 0.0171 µM
[37]
  ED50: 0.085 µM
[38]
  ED50: 6.18 µM
[39]
  ED50: 23.3 µM
[40]
  ED50: 0.163 µM
[41]
  ED50: 2.16 µM
[42]
  ED50: 21.9 µM

## Cc1ccc(C(=O)Nc2cccc(C(F)(F)F)c2)cc1Nc1nc(-c2cccnc2)nc2nn(C)cc12
[1]
  ED50: 6.16 µM
Vinculin (Homo sapiens)
  ED50: 68.1 µM
[2]
  ED50: 0.00497 µM
[3]
  ED50: 0.296 µM
[4]
  ED50: 37.2 µM
[5]
  ED50: 9.99 µM
[6]
  ED50: 16.5 µM
[7]
  ED50: 523 µM
Ephrin type-A receptor 7
  IC50: > 50 µM
[8]
  ED50: 0.0341 µM
[9]
  ED50: 0.514 µM
[10]
  ED50: 32.9 µM
[11]
  ED50: 0.338 µM
[12]
  ED50: 0.0519 µM
[13]
  ED50: 0.0388 µM
[14]
  ED50: 0.332 µM
[15]
  ED50: 0.00989 µM
[16]
  ED50: 0.0058 µM
[17]
  ED50: 0.01 µM
[18]
  ED50: 383 µM
[19]
  ED50: 0.0179 µM
[20]
  ED50: 0.09 µM
[21]
  ED50: 8.14 µM
[22]
  ED50: 0.151 µM
[23]
  ED50: 1.81 µM
[24]
  ED50: 0.0495 µM
[25]
  ED50: 385 µM
[26]
  ED50: 1.94 µM
[27]
  ED50: 1.79 µM
[28]
  ED50: 3.97 µM
[29]
  ED50: 0.245 µM
[30]
  ED50: 0.107 µM
Metaxin-2 (Homo sapiens)
  ED50: 1.77 µM
[31]
  ED50: 0.0363 µM
[32]
  ED50: 0.0157 µM
[33]
  ED50: 18.3 µM
[34]
  ED50: 21.8 µM
[35]
  ED50: 17.2 µM
[36]
  ED50: 0.291 µM
[37]
  ED50: 0.0579 µM
[38]
  ED50: 0.0162 µM
[39]
  ED50: 3690 µM
[40]
  ED50: 1.37 µM
[41]
  ED50: 8.67 µM
[42]
  ED50: 0.0697 µM
